From PubChem BioAssay AID338 (DTP/NCI, 2004)
Values joined by “and” are separate entries in the source; they are usually repeats but may differ in a detail not shown here. Identical values can stand only once. Inconclusive results and toxic doses are left out. *1 amine or outer side, *2 acyl side, *3 side chain or, on linkers, in order; H or OH if unused. Where a SMILES comes first, the peptide text is derived from it. Bridges are numbered along the chain shown (N, C = ends). Roman numbers before positions name the chains, in order. [ ]: non-standard residue; d: D form. Actinocin(9to1) = Cc1c2oc3c(C)ccc(C(=O)[*:1])c3nc-2c(C(=O)[*:2])c(N)c1=O; aThr = C[C@H](O)[C@H](N)C(=O)O; NMeV = CN[C@H](C(=O)O)C(C)C; Sar = CNCC(=O)O

Tested on: BDF1 mice, P388 leukemia (terephthalanilide-resistant), survival T/C
Assay: NCI In Vivo Anticancer Drug Screen. Data for tumor model P388 Leukemia resistant to A Terephthalanilide; NSC 38280 (intraperitoneal) in B6D2F1 (BDF1) mice
Conditions: endpoint: median survival time, higher = longer survival
Method: The antitumor activity of compounds was measured in mice bearing transplantable tumors. Survival or tumor size were measured and the results are expressed as the measurement made in the treated group (T) divided by the measurement made in the vehicle treated control group (C). The tumor model used in this assay is P388 Leukemia resistant to A Terephthalanilide; NSC 38280 (intraperitoneal) in B6D2F1 (BDF1) mice

[1] = dose: 12.5 mg/kg/injection, schedule: Q01DX010 (ip), vehicle: saline
[2] = dose: 25.0 mg/kg/injection, schedule: Q01DX010 (ip), vehicle: saline
[3] = dose: 5.0 mg/kg/injection, schedule: Q01DX010 (ip), vehicle: saline
[4] = dose: 20.0 mg/kg/injection, schedule: Q01DX010 (ip), vehicle: saline
[5] = dose: 10.0 mg/kg/injection, schedule: Q01DX010 (ip), vehicle: saline
[6] = dose: 40.0 mg/kg/injection, schedule: Q01DX010 (ip), vehicle: saline
[7] = dose: 1.25 mg/kg/injection, schedule: Q01DX010 (ip), vehicle: saline
[8] = dose: 2.5 mg/kg/injection, schedule: Q01DX010 (ip), vehicle: saline
[9] = dose: 15.6 mg/kg/injection, schedule: Q01DX010 (ip), vehicle: saline
[10] = dose: 62.5 mg/kg/injection, schedule: Q01DX010 (ip), vehicle: saline
[11] = dose: 125.0 mg/kg/injection, schedule: Q01DX010 (ip), vehicle: saline
[12] = dose: 2.0 mg/kg/injection, schedule: Q01DX010 (ip), vehicle: saline
[13] = dose: 250.0 mg/kg/injection, schedule: Q01DX010 (ip), vehicle: saline
[14] = dose: 30.0 mg/kg/injection, schedule: Q01DX010 (ip), vehicle: saline
[15] = dose: 50.0 mg/kg/injection, schedule: Q01DX010 (ip), vehicle: saline
[16] = dose: 100.0 mg/kg/injection, schedule: Q01DX010 (ip), vehicle: saline
[17] = dose: 200.0 mg/kg/injection, schedule: Q01DX010 (ip), vehicle: saline
[18] = dose: 8.0 mg/kg/injection, schedule: Q01DX010 (ip), vehicle: saline

In the case of `Cc1c2oc3c(C)ccc(C(=O)N[C@@H]4C(=O)N[C@H](C(C)C)C(=O)N5CCC[C@H]5C(=O)N(C)CC(=O)N(C)[C@@H](C(C)C)C(=O)O[C@H]4C)c3nc-2c(C(=O)N[C@@H]2C(=O)N[C@H](C(C)C)C(=O)N3CCC[C@H]3C(=O)N(C)CC(=O)N(C)[C@@H](C(C)C)C(=O)O[C@H]2C)c(N)c1=O` (I: [aThr][dV]P[Sar][NMeV] / II: [aThr][dV]P[Sar][NMeV]; ester I:1-I:C, II:1-II:C; linker I:N-II:N via Actinocin(9to1)), the T/C (dose: 12.5 micrograms/kg/injection, schedule: Q01DX010 (ip), vehicle: other) is reported as 111 % of control and 120 % of control, the T/C (dose: 25.0 micrograms/kg/injection, schedule: Q01DX010 (ip), vehicle: other) is reported as 116 % of control and 120 % of control and the T/C (dose: 50.0 micrograms/kg/injection, schedule: Q01DX010 (ip), vehicle: other) is reported as 120 % of control and 122 % of control. For the same molecule, the T/C (dose: 100.0 micrograms/kg/injection, schedule: Q01DX010 (ip), vehicle: other) was 115 % of control and 122 % of control.

For `N=[N+]=CC(=O)OCC(N)C(=O)O` (stereo not given), the T/C [1] was 115 % of control and 116 % of control and the T/C [2] was 88 % of control.

`O=P1(N(CCCl)CCCl)NCCCO1` (stereo not given) was tested, and the T/C (dose: 11.3 mg/kg/injection, schedule: Q01DX005 (ip), vehicle: saline) was 100 % of control and 109 % of control, the T/C (dose: 11.3 mg/kg/injection, schedule: Q01DX010 (ip), vehicle: saline) was 111 % of control and the T/C (dose: 22.5 mg/kg/injection, schedule: Q01DX005 (ip), vehicle: saline) was 118 % of control and 122 % of control. The T/C (dose: 45.0 mg/kg/injection, schedule: Q01DX005 (ip), vehicle: saline) was 154 % of control, the T/C (dose: 45.0 mg/kg/injection, schedule: Q01DX010 (ip), vehicle: saline) was 183 % of control and the T/C (dose: 90.0 mg/kg/injection, schedule: Q01DX005 (ip), vehicle: saline) was 272 % of control. The T/C (dose: 90.0 mg/kg/injection, schedule: Q01DX010 (ip), vehicle: saline) was 105 % of control and the T/C (dose: 180.0 mg/kg/injection, schedule: Q01DX010 (ip), vehicle: saline) was 88 % of control.

In the case of `CN(N=O)C(N)=O`, the T/C [3] is reported as 113 % of control and the T/C [4] is reported as 118 % of control.

With `O=C(Nc1ccc(C2=NCCN2)cc1)c1ccc(C(=O)Nc2ccc(C3=NCCN3)cc2)cc1` the T/C (dose: 75.0 mg/kg/injection, schedule: Q01DX010 (ip), vehicle: saline) was 116 % of control and the T/C (dose: 167.0 mg/kg/injection, schedule: Q01DX010 (ip), vehicle: saline) was 122 % of control.

In the case of `C[C@]12C=CC(=O)C=C1CC[C@@H]1[C@@H]2[C@@H](O)C[C@@]2(C)[C@H]1CC[C@]2(O)C(=O)CO`, the T/C (dose: 12.5 mg/kg/injection, schedule: Q01DX010 (sc), vehicle: steriod suspending solution) is reported as 112 % of control, the T/C (dose: 25.0 mg/kg/injection, schedule: Q01DX010 (sc), vehicle: steriod suspending solution) is reported as 118 % of control and the T/C (dose: 50.0 mg/kg/injection, schedule: Q01DX010 (sc), vehicle: steriod suspending solution) is reported as 106 % of control. For the same molecule, the T/C (dose: 100.0 mg/kg/injection, schedule: Q01DX010 (sc), vehicle: steriod suspending solution) was 112 % of control.

With `S=P(N1CC1)(N1CC1)N1CC1` the T/C (dose: 0.75 mg/kg/injection, schedule: Q01DX010 (ip), vehicle: saline) was 112 % of control and the T/C (dose: 6.0 mg/kg/injection, schedule: Q01DX010 (ip), vehicle: saline) was 162 % of control.

With `O=c1[nH]c(=O)n(C2CC(O)C(CO)O2)cc1F` (stereo not given) the T/C [3] was 100 % of control, the T/C [5] was 90 % of control and 104 % of control and the T/C [4] was 90 % of control and 113 % of control. The T/C [6] was 104 % of control and 118 % of control and the T/C (dose: 80.0 mg/kg/injection, schedule: Q01DX010 (ip), vehicle: saline) was 159 % of control.

For `Oc1cc(CN(CCCl)CCCl)c(O)cc1CN(CCCl)CCCl`, the T/C (dose: 0.63 mg/kg/injection, schedule: Q01DX010 (ip), vehicle: saline) was 116 % of control, the T/C [7] was 100 % of control and 116 % of control and the T/C [8] was 100 % of control and 116 % of control. For the same molecule, the T/C [3] was 100 % of control and 116 % of control and the T/C [5] was 110 % of control.

With `CCn1cnc2c(=S)nc[nH]c21` the T/C [9] was 100 % of control and 105 % of control, the T/C (dose: 31.3 mg/kg/injection, schedule: Q01DX010 (ip), vehicle: saline) was 105 % of control and 110 % of control and the T/C [10] was 94 % of control and 100 % of control. The T/C [11] was 110 % of control.

With `NC(=O)N(CCCl)N=O` the T/C (dose: 0.5 mg/kg/injection, schedule: Q01DX010 (ip), vehicle: saline) was 172 % of control, the T/C (dose: 1.0 mg/kg/injection, schedule: Q01DX010 (ip), vehicle: saline) was 172 % of control and the T/C [12] was 109 % of control.

For `N#[N+]c1cnc([O-])[nH]c1=O`, the T/C [7] was 113 % of control, the T/C [8] was 113 % of control and the T/C [3] was 95 % of control and 122 % of control.

For `c1ccc(CCSc2ncnc3nc[nH]c23)cc1`, the T/C [10] was 90 % of control, the T/C [11] was 90 % of control and the T/C [13] was 100 % of control. For the same molecule, the T/C (dose: 500.0 mg/kg/injection, schedule: Q01DX010 (ip), vehicle: saline) was 100 % of control.

With `CNc1nc(Nc2ccc(C3=NCCN3)cc2)nc(Nc2ccc(C3=NCCN3)cc2)n1` the T/C (dose: 13.3 mg/kg/injection, schedule: Q01DX010 (ip), vehicle: saline) was 117 % of control, the T/C [4] was 111 % of control and the T/C [14] was 117 % of control.

`O=c1cnn(C2OC(CO)C(O)C2O)c(=O)[nH]1` (stereo not given) was tested, and the T/C (dose: 800.0 mg/kg/injection, schedule: Q01DX010 (ip), vehicle: saline) was 120 % of control and the T/C (dose: 1600.0 mg/kg/injection, schedule: Q01DX010 (ip), vehicle: saline) was 110 % of control.

`Clc1ncnc2nc[nH]c12` was tested, and the T/C (dose: 7.5 mg/kg/injection, schedule: Q01DX010 (ip), vehicle: saline) was 87 % of control, the T/C (dose: 15.0 mg/kg/injection, schedule: Q01DX010 (ip), vehicle: saline) was 87 % of control and 93 % of control and the T/C [14] was 87 % of control and 106 % of control. The T/C (dose: 60.0 mg/kg/injection, schedule: Q01DX010 (ip), vehicle: saline) was 93 % of control.

For `CS(=O)(=O)OCC(O)C(O)C(O)C(O)COS(C)(=O)=O` (stereo not given), the T/C [15] was 100 % of control, the T/C [16] was 100 % of control and the T/C [17] was 100 % of control. For the same molecule, the T/C (dose: 400.0 mg/kg/injection, schedule: Q01DX010 (ip), vehicle: saline) was 100 % of control.

With `CCCNc1ncnc2[nH]ncc12` the T/C (dose: 3.13 mg/kg/injection, schedule: Q01DX010 (ip), vehicle: saline) was 95 % of control and 105 % of control, the T/C (dose: 6.25 mg/kg/injection, schedule: Q01DX010 (ip), vehicle: saline) was 100 % of control and the T/C [1] was 90 % of control and 94 % of control. For the same molecule, the T/C [2] was 110 % of control and the T/C [13] was 111 % of control.

`O=C(Nc1ccc(C2=NCCN2)cc1)c1ccc(C(=O)Nc2ccc(C3=NCCN3)cc2)c(NC(=O)c2ccc(C(=O)Nc3cc(C(=O)Nc4ccc(C5=NCCN5)cc4)ccc3C(=O)Nc3ccc(C4=NCCN4)cc3)cc2)c1` was tested, and the T/C [2] was 100 % of control, the T/C [15] was 94 % of control and the T/C [16] was 94 % of control. The T/C [17] was 100 % of control.

With `O=C(Nc1ccc(NC2=NCCN2)cc1)c1ccc(C(=O)Nc2ccc(NC3=NCCN3)cc2)cc1` the T/C [12] was 100 % of control and 106 % of control, the T/C (dose: 4.0 mg/kg/injection, schedule: Q01DX010 (ip), vehicle: saline) was 150 % of control and the T/C [18] was 181 % of control.

In the case of `Cc1cc(N(CCCl)CCCl)ccc1N=Nc1ccccc1C(=O)O`, the T/C [3] is reported as 116 % of control and the T/C [6] is reported as 100 % of control.

In the case of `CC(=O)Nc1ccc2nc3ccc(NC(C)=O)cc3[n+](-c3ccccc3)c2c1`, the T/C (dose: 7.8 mg/kg/injection, schedule: Q01DX010 (ip), vehicle: saline) is reported as 90 % of control and the T/C [9] is reported as 90 % of control.

With `c1ccc(CNc2ncnc3[nH]ncc23)cc1` the T/C [18] was 90 % of control, the T/C (dose: 16.0 mg/kg/injection, schedule: Q01DX010 (ip), vehicle: saline) was 90 % of control and 95 % of control and the T/C (dose: 32.0 mg/kg/injection, schedule: Q01DX010 (ip), vehicle: saline) was 90 % of control and 100 % of control. The T/C (dose: 64.0 mg/kg/injection, schedule: Q01DX010 (ip), vehicle: saline) was 90 % of control and 105 % of control.

With `O=C(Nc1ccc(C2=NCCN2)cc1)c1cc(Cl)cc(C(=O)Nc2ccc(C3=NCCN3)cc2)c1` the T/C (dose: 140.0 mg/kg/injection, schedule: Q01DX010 (ip), vehicle: saline) was 100 % of control, the T/C (dose: 210.0 mg/kg/injection, schedule: Q01DX010 (ip), vehicle: saline) was 100 % of control and the T/C (dose: 315.0 mg/kg/injection, schedule: Q01DX010 (ip), vehicle: saline) was 100 % of control. For the same molecule, the T/C (dose: 473.0 mg/kg/injection, schedule: Q01DX010 (ip), vehicle: saline) was 94 % of control.
